Results as given in US20260200919A1, “SUBSTITUTED AMINOPYRIDINE COMPOUNDS AND METHODS OF TREATING DISEASE USING SAME” (Atavistik Bio, Inc., priority 2023, published 2026).

Legend:
[1] = biological target: T1, human recombinant kinase full-length wildtype AKT1 (Homo sapiens, UniProt P31749); test: AKT1 kinase assay (wildtype, TR-FRET, Lance); assay type: biochemical; conditions: 0.6 nM wildtype AKT1, 50 nM Ulight-CREBtide, either 50 μM ATP or 2 mM ATP (not specified which), 60 min at RT
T1 construct: Purified human recombinant kinase full-length wildtype AKT1 was expressed in insect cells; made in house; host or cells: insect cells
Procedure, shortened: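 Insect-cell-expressed AKT1, activated in vitro by PDPK1, was used at 0.6 nM with 50 nM Ulight-CREBtide and 50 μM or 2 mM ATP in 50 mM HEPES pH 7.5, 1% DMSO, over a 10-point dose response.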

[2] = biological target: T2, human recombinant kinase full-length AKT1 E17K (Homo sapiens, UniProt P31749, E17K); test: AKT1 E17K kinase assay (TR-FRET, Lance); assay type: biochemical; conditions: 0.6 nM AKT1 E17K, 50 nM Ulight-CREBtide, either 50 μM ATP or 2 mM ATP (not specified which), 60 min at RT
T2 construct: Purified human recombinant kinase full-length AKT1 E17K was expressed in insect cells; made in house; host or cells: insect cells
Procedure, shortened: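 Full-length human AKT1 E17K (insect cell-expressed, PDPK1-activated; 0.6 nM) with 50 nM ULight-CREBtide in HEPES pH 7.5 with MgCl2 and DTT. ATP at 50 μM or 2 mM, 1% DMSO, 10-point dose response, 60 min at RT.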

T2 sequence (P31749 whole entry E17K): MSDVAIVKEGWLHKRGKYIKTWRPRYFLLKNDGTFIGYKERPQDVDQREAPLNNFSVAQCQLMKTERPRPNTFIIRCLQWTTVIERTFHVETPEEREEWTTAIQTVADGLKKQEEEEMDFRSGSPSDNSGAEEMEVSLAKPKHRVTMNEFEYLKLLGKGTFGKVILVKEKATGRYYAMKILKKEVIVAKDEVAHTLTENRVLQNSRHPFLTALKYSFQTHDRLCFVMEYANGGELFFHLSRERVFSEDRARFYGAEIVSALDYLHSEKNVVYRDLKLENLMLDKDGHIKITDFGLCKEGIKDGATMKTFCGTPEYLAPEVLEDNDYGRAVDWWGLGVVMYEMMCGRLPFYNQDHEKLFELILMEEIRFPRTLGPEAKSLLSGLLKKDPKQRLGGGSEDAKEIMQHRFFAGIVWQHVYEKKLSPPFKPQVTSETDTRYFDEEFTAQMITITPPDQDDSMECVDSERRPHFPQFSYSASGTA
T1 sequence (P31749 whole entry): as the sequence (P31749 whole entry E17K) above, with K17E counted along it

Row | Compound | IC50 [1] [nM] | IC50 [2] [nM]
1 | COc1ccc2nc(-c3cccnc3N)n(-c3ccc(CNC(=O)c4cccc(CC(=O)O)c4)cc3)c2c1 [Compound 104, 2-(3-((4-(2-(2-aminopyridin-3-yl)-6-methoxy-1H-benzo[d]imidazol-1-yl)benzyl)carbamoyl)phenyl) acetic acid] | > 500 | > 500
2 | Cc1cc(C(=O)O)ccc1C(=O)NCc1ccc(-n2c(-c3cccnc3N)nc3ccc(C(F)(F)F)cc32)cc1 [Compound 105, 4-((4-(2-(2-aminopyridin-3-yl)-6-(trifluoromethyl)-1H-benzo[d]imidazol-1-yl)benzyl)carbamoyl)-3-methylbenzoic acid] | < 500 | > 500
3 | Nc1ncccc1-c1nc2ccc(C(F)(F)F)cc2n1-c1ccc(CNC(=O)c2cccc(C(=O)O)c2F)cc1 [Compound 106, 3-((4-(2-(2-aminopyridin-3-yl)-6-(trifluoromethyl)-1H-benzo[d]imidazol-1-yl)benzyl)carbamoyl)-2-fluorobenzoic acid] | > 500 | > 500
4 | Nc1ncccc1-c1nc2ccc(C(F)(F)F)cc2n1-c1ccc(CNC(=O)c2cccc(CC(=O)O)c2)cc1 [Compound 107, 2-(3-((4-(2-(2-aminopyridin-3-yl)-6-(trifluoromethyl)-1H-benzo[d]imidazol-1-yl)benzyl)carbamoyl)phenyl) acetic acid] | > 500 | > 500
5 | Nc1ncccc1-c1nc2ccccc2n1-c1ccc(CNC(=O)c2cccc(CC(=O)O)c2)cc1 [Compound 108, 2-(3-((4-(2-(2-aminopyridin-3-yl)-1H-benzo[d]imidazol-1-yl)benzyl)carbamoyl)phenyl) acetic acid] | > 500 | > 500
6 | Nc1ncccc1-c1nc2ccc(-c3ccc(F)cc3)nc2n1-c1ccc(NC(=O)c2ccc(C(=O)O)cc2)nc1 [Compound 109, 4-((5-(2-(2-aminopyridin-3-yl)-5-(4-fluorophenyl)-3H-imidazo[4,5-b]pyridin-3-yl)pyridin-2-yl)carbamoyl)benzoic acid] | < 500 | 50 to 200
7 | Nc1ncccc1-c1nc2ccc(-c3ccccc3)nc2n1-c1ccc(NC(=O)c2ccc(C(=O)O)c(F)c2)nc1 [Compound 117] | < 500 | < 50
8 | Cc1cc(C(=O)Nc2ccc(-n3c(-c4cccnc4N)nc4ccc(-c5ccccc5)nc43)cn2)ccc1C(=O)O [Compound 118, 4-((5-(2-(2-aminopyridin-3-yl)-5-phenyl-3H-imidazo[4,5-b]pyridin-3-yl)pyridin-2-yl)carbamoyl)-2-methylbenzoic acid] | < 500 | < 50
9 | Nc1ncccc1-c1nc2ccc(-c3ccccc3)nc2n1-c1ccc(C2CCN(Cc3ccc(C(=O)O)cc3)CC2)cc1 [Compound 139, 4-((4-(4-(2-(2-aminopyridin-3-yl)-5-phenyl-3H-imidazo[4,5-b]pyridin-3-yl)phenyl)piperidin-1-yl)methyl)benzoic acid] | < 500 | > 500
10 | Cc1cc(C(=O)Nc2ccc(-n3c(-c4cccnc4N)nc4ccc(-c5ccccc5)nc43)cn2)c(F)cc1C(=O)O [Compound 145] | < 500 | 50 to 200
11 | Cc1nc(NC(=O)c2cc(F)c(C(=O)O)cc2F)ccc1-n1c(-c2cccnc2N)nc2ccc(-c3ccccc3)nc21 [Compound 147] | < 500 | 50 to 200
12 | Cc1nc(NC(=O)c2ccc(C(=O)O)cc2F)ccc1-n1c(-c2cccnc2N)nc2ccc(-c3ccccc3)nc21 [Compound 148] | < 500 | 50 to 200
13 | Cc1cc(C(=O)O)c(F)cc1C(=O)Nc1ccc(-n2c(-c3cccnc3N)nc3ccc(-c4ccccc4)nc32)c(C)n1 [Compound 149] | < 500 | 50 to 200
14 | Nc1ncccc1-c1nc2ccc(-c3ccccc3)nc2n1-c1ccc(NC(=O)c2cc(F)c(C(=O)O)c(F)c2)nc1 [Compound 150] | < 500 | < 50
15 | Nc1ncccc1-c1nc2ccc(-c3ccccc3)nc2n1-c1ccc(NC(=O)c2ccc(C(=O)O)nc2)nc1 [Compound 151] | < 500 | < 50
16 | Nc1ncccc1-c1nc2ccc(-c3ccccc3)nc2n1-c1ccc(NC(=O)c2cc(F)c(C(=O)O)cc2F)nc1 [Compound 152] | < 500 | 50 to 200
17 | Cc1nc(NC(=O)c2ccc(C(=O)O)cc2)ccc1-n1c(-c2cccnc2N)nc2ccc(-c3ccccc3)nc21 [Compound 153] | < 500 | < 50
18 | Cc1nc(NC(=O)c2ccc(C(=O)O)c(F)c2)ccc1-n1c(-c2cccnc2N)nc2ccc(-c3ccccc3)nc21 [Compound 154] | < 500 | < 50

Row | Compound | IC50 [1] [nM] | IC50 [2] [nM]
19 | Cc1cc(C(=O)Nc2ccc(-n3c(-c4cccnc4N)nc4ccc(-c5ccccc5)nc43)c(C)n2)c(C)cc1C(=O)O [Compound 155] | < 500 | > 500
20 | C[C@@H](c1ccc(C(=O)O)cc1F)N1CC(c2ccc(-n3c(-c4cccnc4N)nc4ccc(-c5ccccc5)nc43)cc2)C1 [Compound 159] | < 500 | 200 to 500
21 | C[C@H](c1ccc(C(=O)O)cc1F)N1CC(c2ccc(-n3c(-c4cccnc4N)nc4ccc(-c5ccccc5)nc43)cc2)C1 [Compound 160] | < 500 | 50 to 200
22 | CC(C)[C@H](c1ccc(C(=O)O)cc1)N1CC(c2ccc(-n3c(-c4cccnc4N)nc4ccc(-c5ccccc5)nc43)cc2)C1 [Compound 161] | < 500 | 200 to 500
23 | CC(C)[C@@H](c1ccc(C(=O)O)cc1)N1CC(c2ccc(-n3c(-c4cccnc4N)nc4ccc(-c5ccccc5)nc43)cc2)C1 [Compound 162] | < 500 | 200 to 500
24 | CC(c1ccc(C(=O)O)c(F)c1)N1CC(c2ccc(-n3c(-c4cccnc4N)nc4ccc(-c5ccccc5)nc43)cc2)C1 (stereo not shown) [Compound 163] | < 500 | 50 to 200
25 | C[C@@H](c1ccc(C(=O)O)cc1C(F)(F)F)N1CC(c2ccc(-n3c(-c4cccnc4N)nc4ccc(-c5ccccc5)nc43)cc2)C1 [Compound 164] | < 500 | > 500
26 | C[C@H](c1ccc(C(=O)O)cc1C(F)(F)F)N1CC(c2ccc(-n3c(-c4cccnc4N)nc4ccc(-c5ccccc5)nc43)cc2)C1 [Compound 165] | < 500 | 50 to 200
27 | CC(c1ccc(C(=O)O)cc1)N1CC(c2ccc(-n3c(-c4cccnc4N)nc4ccc(-c5ccccc5)nc43)cc2F)C1 (stereo not shown) [Compound 166, 4-(1-(3-(4-(2-(2-aminopyridin-3-yl)-5-phenyl-3H-imidazo[4,5-b]pyridin-3-yl)-2-fluorophenyl)azetidin-1-yl)ethyl)benzoic acid] | < 500 | 200 to 500
28 | CC(c1ccc(C(=O)O)cc1)N1CC(c2ccc(-n3c(-c4cccnc4N)nc4ccc(-c5ccccc5)nc43)cn2)C1 (stereo not shown) [Compound 167, 4-(1-(3-(5-(2-(2-aminopyridin-3-yl)-5-phenyl-3H-imidazo[4,5-b]pyridin-3-yl)pyridin-2-yl)azetidin-1-yl)ethyl)benzoic acid] | < 500 | > 500
29 | Nc1ncccc1-c1nc2ccc(-c3ccccc3)nc2n1-c1ccc(C2CN(Cc3ccc(C(=O)O)cc3)C2)nc1 [Compound 168, 4-[[3-[5-[2-(2-amino-3-pyridyl)-5-phenyl-imidazo[4,5-b]pyridin-3-yl]-2-pyridyl]azetidin-1-yl]methyl]benzoic acid] | < 500 | > 500
30 | CC(c1ccc(C(=O)O)cc1)N1CCC(c2ccc(-n3c(-c4cccnc4N)nc4ccc(-c5ccccc5)nc43)cc2)CC1 (stereo not shown) [Compound 169, 4-(1-(4-(4-(2-(2-aminopyridin-3-yl)-5-phenyl-3H-imidazo[4,5-b]pyridin-3-yl)phenyl)piperidin-1-yl)ethyl)benzoic acid] | < 500 | 200 to 500
31 | CC(c1ccc(C(=O)O)cc1)N1CCCC(c2ccc(-n3c(-c4cccnc4N)nc4ccc(-c5ccccc5)nc43)cc2)C1 (stereo not shown) [Compound 170, 4-(1-(3-(4-(2-(2-aminopyridin-3-yl)-5-phenyl-3H-imidazo[4,5-b]pyridin-3-yl)phenyl)piperidin-1-yl)ethyl)benzoic acid] | < 500 | > 500
32 | CC(c1ccc(C(=O)O)cc1)N1CCC(c2ccc(-n3c(-c4cccnc4N)nc4ccc(-c5ccccc5)nc43)cc2)C1 (stereo not shown) [Compound 171, 4-(1-(3-(4-(2-(2-aminopyridin-3-yl)-5-phenyl-3H-imidazo[4,5-b]pyridin-3-yl)phenyl)pyrrolidin-1-yl)ethyl)benzoic acid] | < 500 | 200 to 500
33 | CC(C)c1ccc2nc(-c3cccnc3N)n(-c3ccc(NC(=O)c4ccc(C(=O)O)cc4)nc3)c2c1 [Compound 172, 4-((5-(2-(2-aminopyridin-3-yl)-6-isopropyl-1H-benzo[d]imidazol-1-yl)pyridin-2-yl)carbamoyl)benzoic acid] | < 500 | > 500
34 | CC(C)c1ccc2nc(-c3cccnc3N)n(-c3ccc(C4CN(Cc5ccc(C(=O)O)cc5)C4)cc3)c2n1 [Compound 173, 4-((3-(4-(2-(2-aminopyridin-3-yl)-5-isopropyl-3H-imidazo[4,5-b]pyridin-3-yl)phenyl)azetidin-1-yl)methyl)benzoic acid] | < 500 | > 500
35 | CC(C)(C)c1ccc2nc(-c3cccnc3N)n(-c3ccc(NC(=O)c4ccc(C(=O)O)cc4)nc3)c2c1 [Compound 174, 4-((5-(2-(2-aminopyridin-3-yl)-6-(tert-butyl)-1H-benzo[d]imidazol-1-yl)pyridin-2-yl)carbamoyl)benzoic acid] | > 500 | > 500
